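48-hour exposure; five concentrations; linearly interpolated endpoints. GI50 is the concentration that inhibits growth by half.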 Active and inactive are the calls of the source. Rule as the data show it: active = GI50 up to about 1.1 µM and inactive = higher.
Tests used:
Assay in all cases: NCI anticancer screen, dose series, 48 h
OVCAR-4 = tested on: OVCAR-4
NCI-H460 = tested on: NCI-H460
SF-268 = tested on: SF-268
SNB-78 = tested on: SNB-78
MOLT-4 = tested on: MOLT-4
SF-539 = tested on: SF-539
NCI-H23 = tested on: NCI-H23
SN12C = tested on: SN12C
NCI-H226 = tested on: NCI-H226
DMS-273 = tested on: DMS-273
COLO 205 = tested on: COLO 205
HOP-92 = tested on: HOP-92
M14 = tested on: M14
CAKI-1 = tested on: CAKI-1
SR = tested on: SR
SNB-75 = tested on: SNB-75
IGROV-1 = tested on: IGROV-1
OVCAR-5 = tested on: OVCAR-5
OVCAR-8 = tested on: OVCAR-8
U-251 = tested on: U-251
Malme-3M = tested on: Malme-3M
SK-MEL-2 = tested on: SK-MEL-2
KM12 = tested on: KM12
KM-20L2 = tested on: KM-20L2
RXF 393 = tested on: RXF 393
HT-29 = tested on: HT-29
HCC 2998 = tested on: HCC 2998
A498 = tested on: A498
RPMI-8226 = tested on: RPMI-8226
CCRF-CEM = tested on: CCRF-CEM
LXFL 529 = tested on: LXFL 529
SK-MEL-28 = tested on: SK-MEL-28
HL-60 = tested on: HL-60
ACHN = tested on: ACHN
UACC-257 = tested on: UACC-257
EKVX = tested on: EKVX
HCT-116 = tested on: HCT-116
SNB-19 = tested on: SNB-19
LOX IMVI = tested on: LOX IMVI
HOP-18 = tested on: HOP-18
HCT-15 = tested on: HCT-15
SW-620 = tested on: SW-620
RXF 631 = tested on: RXF 631
SF-295 = tested on: SF-295
TK-10 = tested on: TK-10
A549 = tested on: A549
K562 = tested on: K562
DLD-1 = tested on: DLD-1
NCI-H522 = tested on: NCI-H522
UO-31 = tested on: UO-31
OVCAR-3 = tested on: OVCAR-3
M19-MEL = tested on: M19-MEL
786-0 = tested on: 786-0
HOP-62 = tested on: HOP-62
UACC-62 = tested on: UACC-62
DMS-114 = tested on: DMS-114
SK-OV-3 = tested on: SK-OV-3

O=C(Nc1cccc2c1[nH]c1c(-c3ccccc3)nccc12)c1ccccc1[N+](=O)[O-]
GI50 (OVCAR-4): 38.9 µM (inactive)
GI50 (NCI-H460): 18.6 µM (inactive)
GI50 (SF-268): 27.9 µM (inactive)
GI50 (SNB-78): 30.7 µM (inactive)
GI50 (MOLT-4): 12.9 µM (inactive)
GI50 (SF-539): 20.2 µM (inactive)
GI50 (NCI-H23): 34.7 µM (inactive)
GI50 (SN12C): 49.1 µM (inactive)
GI50 (NCI-H226): 3.74 µM (inactive)
GI50 (DMS-273): 4.88 µM (inactive)
GI50 (COLO 205): 26.2 µM (inactive)
GI50 (HOP-92): 2.81 µM (inactive)
GI50 (M14): 34.1 µM (inactive)
GI50 (CAKI-1): 18.8 µM (inactive)
GI50 (SR): 12.5 µM (inactive)
GI50 (SNB-75): 29.7 µM (inactive)
GI50 (IGROV-1): 54.5 µM (inactive)
GI50 (OVCAR-5): 18.6 µM (inactive)
GI50 (OVCAR-8): 24.8 µM (inactive)
GI50 (U-251): 34.2 µM (inactive)
GI50 (Malme-3M): > 100 µM (inactive)
GI50 (SK-MEL-2): 54.7 µM (inactive)
GI50 (KM12): 9.55 µM (inactive)
GI50 (KM-20L2): 11.2 µM (inactive)
GI50 (RXF 393): 12.6 µM (inactive)
GI50 (HT-29): 8.71 µM (inactive)
GI50 (HCC 2998): 18.6 µM (inactive)
GI50 (A498): 7.76 µM (inactive)
GI50 (RPMI-8226): 30.7 µM (inactive)
GI50 (CCRF-CEM): 21.9 µM (inactive)
GI50 (LXFL 529): 25.5 µM (inactive)
GI50 (SK-MEL-28): 49.5 µM (inactive)
GI50 (HL-60): 26.2 µM (inactive)
GI50 (ACHN): 20.9 µM (inactive)
GI50 (UACC-257): 74.6 µM (inactive)
GI50 (EKVX): 50.9 µM (inactive)
GI50 (HCT-116): 26.4 µM (inactive)
GI50 (SNB-19): 59.8 µM (inactive)
GI50 (LOX IMVI): 24.5 µM (inactive)
GI50 (HOP-18): > 100 µM (inactive)
GI50 (HCT-15): 7.36 µM
GI50 (SW-620): 41.2 µM (inactive)
GI50 (RXF 631): 17.9 µM (inactive)
GI50 (SF-295): 7.13 µM (inactive)
GI50 (TK-10): 33 µM (inactive)
GI50 (A549): 24.4 µM (inactive)
GI50 (K562): 21.9 µM (inactive)

CCOc1ccccc1NC(=O)C1=C(C)NC(C)=C(C(=O)Nc2ccccc2OCC)C1c1ccc([N+](=O)[O-])cc1
GI50 (OVCAR-4): 68.9 µM (inactive)
GI50 (NCI-H460): 63.2 µM (inactive)
GI50 (SF-268): > 100 µM (inactive)
GI50 (SNB-78): > 100 µM (inactive)
GI50 (DLD-1): > 100 µM (inactive)
GI50 (SF-539): > 100 µM (inactive)
GI50 (NCI-H23): 44 µM (inactive)
GI50 (SN12C): > 100 µM (inactive)
GI50 (NCI-H226): 21.4 µM (inactive)
GI50 (DMS-273): 71.4 µM (inactive)
GI50 (COLO 205): 67.9 µM (inactive)
GI50 (NCI-H522): > 100 µM (inactive)
GI50 (HOP-92): 10.5 µM (inactive)
GI50 (M14): 89.5 µM (inactive)
GI50 (CAKI-1): > 100 µM (inactive)
GI50 (SR): 47.6 µM (inactive)
GI50 (SNB-75): 53.1 µM (inactive)
GI50 (IGROV-1): 45.2 µM (inactive)
GI50 (OVCAR-5): > 100 µM (inactive)
GI50 (UO-31): 32.7 µM (inactive)
GI50 (OVCAR-3): > 100 µM (inactive)
GI50 (U-251): > 100 µM (inactive)
GI50 (Malme-3M): > 100 µM (inactive)
GI50 (SK-MEL-2): 44.3 µM (inactive)
GI50 (KM12): 41 µM (inactive)
GI50 (KM-20L2): > 100 µM (inactive)
GI50 (RXF 393): > 100 µM (inactive)
GI50 (HT-29): 75.5 µM (inactive)
GI50 (HCC 2998): > 100 µM (inactive)
GI50 (A498): 78.9 µM (inactive)
GI50 (RPMI-8226): 10 µM (inactive)
GI50 (LXFL 529): 70.5 µM (inactive)
GI50 (M19-MEL): > 100 µM (inactive)
GI50 (SK-MEL-28): > 100 µM (inactive)
GI50 (HL-60): 34.7 µM (inactive)
GI50 (786-0): > 100 µM (inactive)
GI50 (HOP-62): > 100 µM (inactive)
GI50 (ACHN): > 100 µM (inactive)
GI50 (UACC-257): 31.2 µM (inactive)
GI50 (EKVX): 54 µM (inactive)
GI50 (HCT-116): > 100 µM (inactive)
GI50 (SNB-19): > 100 µM (inactive)
GI50 (UACC-62): 26.1 µM (inactive)
GI50 (HOP-18): > 100 µM (inactive)
GI50 (HCT-15): 75.3 µM
GI50 (SW-620): > 100 µM (inactive)
GI50 (RXF 631): > 100 µM (inactive)
GI50 (SF-295): 21.3 µM (inactive)
GI50 (DMS-114): 65.9 µM (inactive)
GI50 (SK-OV-3): > 100 µM (inactive)
GI50 (A549): > 100 µM (inactive)

Reference: ChEMBL document CHEMBL1201862, “PubChem BioAssay data set” (2004)
